From patent US12291516B2, “Substituted 1-amino-1H-imidazole-5-carboxamide as Bruton's tyrosine kinase inhibitors” (Henan Zhiwei Biomedicine Co., Ltd., priority 2019, dated 2025)

Molecular target: BTK (Homo sapiens (Human), UniProt Q06187)
Assay: In house ELISA kinase inhibition assay, BTK
Type: biochemical
Details: footnote b: from in house procedure (ELISA)
Procedure: BTK inhibition Assay and selectivity Assay The assay was conducted either a by a third party (Reaction Biology Corporation, PA, USA) or in house.
b) In House Procedure for BTK, BMX, EGFR and ITK:
Kinase inhibitory activities of compounds were evaluated using the Enzyme-linked immunosorbent assay (ELISA). The kinase enzyme of BTK, BMX, EGFR and ITK were purchased from Carna Bioscience (Kobe, Japan). A total of 10 ng/mL antiphosphotyrosine (PY713) antibody (abcam, Cambridge Science Park, UK) was precoated in 96-well ELISA plates. The kinase enzymes in each reaction well were set to BTK (101.25 ng/mL), BMX (90 ng/mL), EGFR (90 ng/mL) or ITK (120 ng/mL) and incubated with indicated drugs in 1× reaction buffer (50 mmol/L HEPES pH 7.4, 20 mmol/L MgCl2, 0.1 mmol/L MnCl2, 1 mmol/L DTT) containing 20 μmol/L (the final concentration of substrate in ITK reaction was 30 μmol/L) substrate (NH2-[…]-biotin) at 25° C. for 1 h. Then, a total of 3 μmol/L ATP was added and the reaction was continued for 2 h. The products of reaction were transferred into 96-well ELISA plates containing antibody and incubated at 25° C. for 30 min. After incubation, the wells were washed with PBS and then incubated with horseradish peroxidase (HRP)-conjugated streptavidin. The wells were visualized using 3,3′,5,5′-tetramethylbenzidine (TMB), and chromogenic reaction was ended with 2 mol/L H2SO4, the absorbance was read with a multimode plate reader (PerkinElmer, USA) at 450 nm. IC50 values and curve fits were obtained using Prism (GraphPad Software). (Table I-IV)

BTK, sequence (Q06187 whole entry): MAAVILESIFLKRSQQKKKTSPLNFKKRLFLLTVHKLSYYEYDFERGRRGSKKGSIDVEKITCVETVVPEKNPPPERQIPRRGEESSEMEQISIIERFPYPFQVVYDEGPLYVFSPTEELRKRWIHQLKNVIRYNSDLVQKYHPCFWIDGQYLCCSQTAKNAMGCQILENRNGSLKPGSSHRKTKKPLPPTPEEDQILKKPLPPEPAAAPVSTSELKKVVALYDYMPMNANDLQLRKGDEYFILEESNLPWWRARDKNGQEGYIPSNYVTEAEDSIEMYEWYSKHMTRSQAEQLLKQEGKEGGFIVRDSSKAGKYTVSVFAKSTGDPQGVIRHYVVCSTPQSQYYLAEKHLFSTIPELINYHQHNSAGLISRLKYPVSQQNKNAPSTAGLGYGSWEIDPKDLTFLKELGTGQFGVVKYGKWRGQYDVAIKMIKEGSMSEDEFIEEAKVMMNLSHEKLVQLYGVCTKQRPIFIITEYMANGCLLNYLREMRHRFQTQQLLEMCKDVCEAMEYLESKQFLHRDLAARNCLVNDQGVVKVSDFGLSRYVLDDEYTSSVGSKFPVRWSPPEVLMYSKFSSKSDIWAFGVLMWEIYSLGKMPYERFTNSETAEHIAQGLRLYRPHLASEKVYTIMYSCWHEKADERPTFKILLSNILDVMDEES

In order of falling IC50:
1. CCc1ccnc(NC(=O)c2ccc(-c3nc([C@@H]4CCCN4C#N)n(N)c3C(N)=O)cc2)c1 [Example 39, (S)-1-amino-2-(1-cyanopyrrolidin-2-yl)-4-(4-((4-ethylpyridin-2-yl)carbamoyl)phenyl)-1H-imidazole-5-carboxamide]  3850 nM
2. C=C(F)C(=O)N1CCCC[C@H]1c1nc(-c2ccc(C(=O)Nc3cc(OC)ccn3)cc2)c(C(N)=O)n1N [Example 70, (S)-1-amino-2-(1-(2-fluoroacryloyl)piperidin-2-yl)-4-(4-((4-methoxy-pyridin-2-yl)carbamoyl)phenyl)-1H-imidazole-5-carboxamide]  2890 nM
3. CC#CC(=O)N1CCC[C@H]1c1nc(-c2ccc(C(=O)Nc3ccc(C)cn3)cc2)c(C(N)=O)n1N [Example 27, (S)-1-amino-2-(1-(but-2-ynoyl)pyrrolidin-2-yl)-4-(4-((5-methylpyridin-2-yl)carbamoyl)phenyl)-1H-imidazole-5-carboxamide]  2060 nM
4. CC#CC(=O)N1CCC[C@H]1c1nc(-c2ccc(C(=O)Nc3cc(F)ccn3)cc2)c(C(N)=O)n1N [Example 41, (S)-1-amino-2-(1-(but-2-ynoyl)pyrrolidin-2-yl)-4-(4-((4-fluoropyridin-2-yl)carbamoyl)phenyl)-1H-imidazole-5-carboxamide]  1680 nM
5. CC#CC(=O)N1CCC[C@H]1c1nc(-c2ccc(C(=O)Nc3cc(OC)ccn3)cc2)c(C(N)=O)n1N [Example 34, (S)-1-amino-2-(1-(but-2-ynoyl)pyrrolidin-2-yl)-4-(4-((4-methoxy-pyridin-2-yl)carbamoyl)phenyl)-1H-imidazole-5-carboxamide]  1670 nM
6. C=C(F)C(=O)N1CCCC[C@H]1c1nc(-c2ccc(C(=O)Nc3cc(C)ccn3)cc2)c(C(N)=O)n1N [Example 59, (S)-1-amino-2-(1-(2-fluoroacryloyl)piperidin-2-yl)-4-(4-((4-methylpyridin-2-yl)carbamoyl)phenyl)-1H-imidazole-5-carboxamide]  1270 nM
7. CC#CC(=O)N1CCC[C@H]1c1nc(-c2ccc(C(=O)Nc3cc(CC)ccn3)cc2)c(C(N)=O)n1N [Example 38, (S)-1-amino-2-(1-(but-2-ynoyl)pyrrolidin-2-yl)-4-(4-((4-ethylpyridin-2-yl)carbamoyl)phenyl)-1H-imidazole-5-carboxamide]  1040 nM
8. CC#CC(=O)N1CCC[C@H]1c1nc(-c2ccc(C(=O)Nc3cc(C(F)(F)F)ccn3)cc2)c(C(N)=O)n1N [Example 43, (S)-1-amino-2-(1-(but-2-ynoyl)pyrrolidin-2-yl)-4-(4-((4-(trifluoro-methyl)pyridin-2-yl)carbamoyl)phenyl)-1H-imidazole-5-carboxamide]  577 nM
9. C=CC(=O)N1CCC[C@H]1c1nc(-c2ccc(C(=O)Nc3ccc(C)cn3)cc2)c(C(N)=O)n1N [Example 19, (S)-2-(1-acryloylpyrrolidin-2-yl)-1-amino-4-(4-((5-methylpyridin-2-yl)carbamoyl)phenyl)-1H-imidazole-5-carboxamide]  212 nM
10. CC#CC(=O)N1CCCC[C@H]1c1nc(-c2ccc(C(=O)Nc3ccc(C)cn3)cc2)c(C(N)=O)n1N [Example 64, (S)-1-amino-2-(1-(but-2-ynoyl)piperidin-2-yl)-4-(4-((5-methylpyridin-2-yl)carbamoyl)phenyl)-1H-imidazole-5-carboxamide]  129 nM
11. C=CC(=O)N1CCC[C@H]1c1nc(-c2ccc(C(=O)Nc3cc(C(C)C)ccn3)cc2)c(C(N)=O)n1N [Example 44, (S)-2-(1-acryloylpyrrolidin-2-yl)-1-amino-4-(4-((4-isopropylpyridin-2-yl)carbamoyl)phenyl)-1H-imidazole-5-carboxamide]  122 nM
12. CC#CC(=O)N1CCCC[C@H]1c1nc(-c2ccc(C(=O)Nc3ccccn3)cc2)c(C(N)=O)n1N [Example 50, (S)-1-amino-2-(1-(but-2-ynoyl)piperidin-2-yl)-4-(4-(pyridin-2-ylcarbamoyl)phenyl)-1H-imidazole-5-carboxamide]  100 nM
13. CC#CC(=O)N1CCCC[C@H]1c1nc(-c2ccc(C(=O)Nc3cc(OC)ccn3)cc2)c(C(N)=O)n1N [Example 68, (S)-1-amino-2-(1-(but-2-ynoyl)piperidin-2-yl)-4-(4-((4-methoxy-pyridin-2-yl)carbamoyl)phenyl)-1H-imidazole-5-carboxamide]  79.6 nM
14. C=CC(=O)N1CCC[C@H]1c1nc(-c2ccc(C(=O)Nc3cc(C)ccn3)cc2)c(C(N)=O)n1N [Example 10, (S)-2-(1-acryloylpyrrolidin-2-yl)-1-amino-4-(4-((4-methylpyridin-2-yl)carbamoyl)phenyl)-1H-imidazole-5-carboxamide]  79 nM
15. C=CC(=O)N1CCC[C@H]1c1nc(-c2ccc(C(=O)Nc3cc(OC)ccn3)cc2)c(C(N)=O)n1N [Example 28, (S)-2-(1-acryloylpyrrolidin-2-yl)-1-amino-4-(4-((4-methoxypyridin-2-yl)carbamoyl)phenyl)-1H-imidazole-5-carboxamide]  72.9 nM
16. COc1ccnc(NC(=O)c2ccc(-c3nc([C@@H]4CCCCN4C(=O)/C=C/C(F)(F)F)n(N)c3C(N)=O)cc2)c1 [Example 69, (S,E)-1-amino-4-(4-((4-methoxypyridin-2-yl)carbamoyl)phenyl)-2-(1-(4,4,4-trifluorobut-2-enoyl)piperidin-2-yl)-1H-imidazole-5-carboxamide]  70.7 nM
17. C=CC(=O)N1CCC[C@H]1c1nc(-c2ccc(C(=O)Nc3cc(F)ccn3)cc2)c(C(N)=O)n1N [Example 40, (S)-2-(1-acryloylpyrrolidin-2-yl)-1-amino-4-(4-((4-fluoropyridin-2-yl)carbamoyl)phenyl)-1H-imidazole-5-carboxamide]  70.6 nM
18. C=CC(=O)N1CCC[C@H]1c1nc(-c2ccc(C(=O)Nc3cc(C)ccn3)cc2)c(C(N)=O)n1NC [Example 45, (S)-2-(1-acryloylpyrrolidin-2-yl)-1-(methylamino)-4-(4-((4-methyl-pyridin-2-yl)carbamoyl)phenyl)-1H-imidazole-5-carboxamide]  58.2 nM
19. CC#CC(=O)N1CCCC[C@H]1c1nc(-c2ccc(C(=O)Nc3cc(C)ccn3)cc2)c(C(N)=O)n1N [Example 58, (S)-1-amino-2-(1-(but-2-ynoyl)piperidin-2-yl)-4-(4-((4-methylpyridin-2-yl)carbamoyl)phenyl)-1H-imidazole-5-carboxamide]  58.1 nM
20. C=CC(=O)N1CCC[C@H]1c1nc(-c2ccc(C(=O)Nc3cc(C(F)(F)F)ccn3)cc2)c(C(N)=O)n1N [Example 42, (S)-2-(1-acryloylpyrrolidin-2-yl)-1-amino-4-(4-((4-(trifluoromethyl)pyridin-2-yl)carbamoyl)phenyl)-1H-imidazole-5-carboxamide]  48 nM
21. Cc1ccnc(NC(=O)c2ccc(-c3nc([C@@H]4CCCCN4C(=O)/C=C/C(F)(F)F)n(N)c3C(N)=O)cc2)c1 [Example 60, (S,E)-1-amino-4-(4-((4-methylpyridin-2-yl)carbamoyl)phenyl)-2-(1-(4,4,4-trifluorobut-2-enoyl)piperidin-2-yl)-1H-imidazole-5-carboxamide]  43.9 nM
22. C=CC(=O)N1CCC[C@H]1c1nc(-c2ccc(C(=O)Nc3cc(CC)ccn3)cc2)c(C(N)=O)n1N [Example 35, (S)-2-(1-acryloylpyrrolidin-2-yl)-1-amino-4-(4-((4-ethylpyridin-2-yl)carbamoyl)phenyl)-1H-imidazole-5-carboxamide]  33 nM
23. C=CC(=O)N1CCCC[C@H]1c1nc(-c2ccc(C(=O)Nc3ccc(C)cn3)cc2)c(C(N)=O)n1N [Example 61, (S)-2-(1-acryloylpiperidin-2-yl)-1-amino-4-(4-((5-methylpyridin-2-yl)carbamoyl)phenyl)-1H-imidazole-5-carboxamide]  18.4 nM
24. C=CC(=O)N1CCCC[C@H]1c1nc(-c2ccc(C(=O)Nc3cc(C)ccn3)cc2)c(C(N)=O)n1N [Example 53, (S)-2-(1-acryloylpiperidin-2-yl)-1-amino-4-(4-((4-methylpyridin-2-yl)carbamoyl)phenyl)-1H-imidazole-5-carboxamide]  18.1 nM
25. CC#CC(=O)N1CCCC[C@H]1c1nc(-c2ccc(C(=O)Nc3cc(-c4ccccc4)ccn3)cc2)c(C(N)=O)n1N [Example 66, (S)-1-amino-2-(1-(but-2-ynoyl)piperidin-2-yl)-4-(4-((4-phenylpyridin-2-yl)carbamoyl)phenyl)-1H-imidazole-5-carboxamide]  16.4 nM
26. C=CC(=O)N1CCCC[C@H]1c1nc(-c2ccc(C(=O)Nc3cc(OC)ccn3)cc2)c(C(N)=O)n1N [Example 67, (S)-2-(1-acryloylpiperidin-2-yl)-1-amino-4-(4-((4-methoxypyridin-2-yl)carbamoyl)phenyl)-1H-imidazole-5-carboxamide]  9.12 nM
27. C=CC(=O)N1CCCC[C@H]1c1nc(-c2ccc(C(=O)Nc3cc(-c4ccccc4)ccn3)cc2)c(C(N)=O)n1N [Example 65, (S)-2-(1-acryloylpiperidin-2-yl)-1-amino-4-(4-((4-phenylpyridin-2-yl)carbamoyl)phenyl)-1H-imidazole-5-carboxamide]  5.06 nM
